Laboratory results taken from US20110105408A1, “THERAPEUTIC PEPTIDES” (INTER-K PTY LIMITED, priority 2008, published 2011).
Entries after “also recorded” stand apart in the source; their conditions may differ. No end group written: not given here.

Assays:
total ERK in HT29 cells = assay: Total-ERK ELISA in HT29 cells; type: cell-based, human; conditions: HT29 cells treated with the dendrimer
Method: HT29 cells were harvested using 0.5% trypsin EDTA (Invitrogen) and 5000 cells were resuspended into 200 μL, and added to each well of a clear NUNC tissue culture treated 96 well plate (NUNC). Cells were seeded in DMEM media (Invitrogen) supplemented with 10% v/v foetal calf serum (FCS, Invitrogen), 1% L-Glutamine (Invitrogen) and 2% 1M HEPES buffer solution (Invitrogen). Cells were then incubated overnight at 37° C. The following day, the growth medium was replaced with 100 μL of serum-free DMEM supplemented with 1% L-glutamine and 2% 1M HEPES buffer solution, and incubated for a further 24 hours at 37° C. Dendrimers were added to test wells in serum free medium to provide final concentrations of the dendrimers ranging from 0.1-20 μLA. The total volume of each well was 200 uL, and cells were incubated at 37° C. for times ranging from 5 minutes to 4 hours. […]
Phospho-ERK levels were determined using the FACE ERK1/2 ELISA kit according to the manufacturer's instructions (Active Motif, kit obtained from Australian Biosearch, WA, Australia). […] The next day, HRP-conjugated secondary antibody was added for one hour before plates were developed and the absorbance measured at 450 nm using a Labsystems Multiskan EX microplate reader (Labsystems, Thermo Labsystems, UK).

[1] = tested on: DU145 prostate cancer cells; assay: Cell proliferation (MTT) assay, DU145 cells; type: cell-based; conditions: 48 hours incubation
Method: (§1) Single cell suspensions of viable trypsinised cells were seeded into 96-well tissue culture plates at a density of 2×10^3 cells per well in a volume of 100 μl of a suitable culture media with foetal calf serum (FCS) (e.g., Dulbecco's Modified Eagles Medium (DMEM), with 10% v/v FCS, glutamine, Hepes, and antibiotics). A set of triplicate wells was prepared for each concentration of the peptide dendrimer being tested. Additional sample wells containing untreated cells or media alone were set up in each treatment plate and processed in parallel as reference controls. A zero-time plate of untreated cells and media-alone wells was simultaneously prepared and an MTT assay carried out on this plate at the time of test peptide dendrimer addition to treatment plates. All plates were cultured for 24 hours before addition of the test dendrimer. […] After solubilisation of the salt crystals, a coloured product is produced the measurement of which allows quantitation of the proliferative activity of the cultured cells.
(§2) Appropriate concentrations of the test dendrimer were prepared by dilution of freshly prepared sterile 1 mM stock solutions into cell culture media to give a final well volume of 200 μl containing 10% v/v FCS. […] Plates were gently vortexed to complete solubilisation of crystalline material and absorbance was read at 540-550 nm using a microplate reader. […]

[2] = tested on: MCF-7 breast cancer cells; assay: Cell proliferation (MTT) assay, MCF-7 cells; type: cell-based; conditions: 48 hours incubation
Method: as §1, §2

HT29 colon cancer cells [3] = assay: Cell proliferation (MTT) assay, HT29 cells; type: cell-based, human; conditions: 24 hour incubation period
[4] = tested on: phospho-ERK in HT29 cells; assay: Phospho-ERK ELISA (FACE ERK1/2 kit) in HT29 cells; type: cell-based, human
Method: HT29 cells were harvested using 0.5% trypsin EDTA (Invitrogen) and 5000 cells were resuspended into 200 μL, and added to each well of a clear NUNC tissue culture treated 96 well plate (NUNC). Cells were seeded in DMEM media (Invitrogen) supplemented with 10% v/v foetal calf serum (FCS, Invitrogen), 1% L-Glutamine (Invitrogen) and 2% 1M HEPES buffer solution (Invitrogen). Cells were then incubated overnight at 37° C. The following day, the growth medium was replaced with 100 μL of serum-free DMEM supplemented with 1% L-glutamine and 2% 1M HEPES buffer solution, and incubated for a further 24 hours at 37° C. Dendrimers were added to test wells in serum free medium to provide final concentrations of the dendrimers ranging from 0.1-20 μLA. The total volume of each well was 200 uL, and cells were incubated at 37° C. for times ranging from 5 minutes to 4 hours. In those studies in which cells were subjected to stimulation by serum, 22 μL FCS (10% v/v final concentration) was added to wells for the final ten minutes of the culture period at 37° C. Serum-free media (SFM) only (22 μL) was added to non-serum stimulated cells.
Phospho-ERK levels were determined using the FACE ERK1/2 ELISA kit according to the manufacturer's instructions (Active Motif, kit obtained from Australian Biosearch, WA, Australia). Briefly, media was replaced and cells fixed with 4% formaldehyde in PBS, and after a 1 hour with antibody blocking buffer (supplied), the primary phospho-ERK or total-ERK antibody was added and incubated overnight at 4° C. Antibody dilution buffer only was added to control test wells containing no primary antibody. The next day, HRP-conjugated secondary antibody was added for one hour before plates were developed and the absorbance measured at 450 nm using a Labsystems Multiskan EX microplate reader (Labsystems, Thermo Labsystems, UK).
The effectiveness of the peptide dendrimer IK248 described in Example 2 in inhibiting growth factor mediated activation of ERK in HT29 cancer cells (i.e., (FCS stimulated) compared to various agents comprising the polypeptide RSKAKNPLYR (SEQ ID No. 6) coupled to different peptide facilitator moieties for facilitating passage of the polypeptide across the plasma cell membrane into the cytosol of the cells was evaluated. Phospho-ERK levels in the cells following treatment with 5 μM IK248 (Dend 8) for 1 hour or polypeptide-facilitator moiety agents (each at 5 μM for the same duration) were measured essentially as described in Example 1.3. The facilitator moieties utilised were the signal peptide fragment AAVALLPAVLLALLA (SEQ ID No. 16), the TAT-G peptide GRKKRRQRRRPPQG (SEQ ID No. 17), a modified pentratin sequence Tr-Pen RRQKWKKG (SEQ ID No. 18), and the penetratin peptide RQIKIWFQNRRMKWKKCS—SC (SEQ ID No. 19) wherein S—S indicates a disulphide bridge between the adjacent cysteine residues.
The peptide RSKAKNPLYR (SEQ ID. No. 6) or peptide dendrimers of the type illustrated in FIG. 3 comprising lysine branching units presenting either 8 (IK248) or 10 (IK248B) monomer units of the peptide RSKAKNPLYR (SEQ ID No. 6) were utilised in this study. Phospho-ERK levels were evaluated by ELISA utilising an Active Motif FACE ERK1/2 ELISA kit (Australian Biosearch, WA, Australia) as described in Example 1.3.

[5] = tested on: MKN45 gastric carcinoma cells; assay: Cell proliferation (MTT) assay, MKN45 cells; type: cell-based; conditions: 48 hours incubation
Method: as §1, §2

HT29 colon cancer cells [6] = assay: Cell proliferation (MTT) assay, HT29 cells; type: cell-based, human; conditions: for inhibition of proliferation of HT29 cells (MTT): 48 hours culture with dendrimer
Method: Single cell suspensions of viable trypsinised cells were seeded into 96-well tissue culture plates at a density of 2×10^3 cells per well in a volume of 100 μl of a suitable culture media with foetal calf serum (FCS) (e.g., Dulbecco's Modified Eagles Medium (DMEM), with 10% v/v FCS, glutamine, Hepes, and antibiotics). A set of triplicate wells was prepared for each concentration of the peptide dendrimer being tested. Additional sample wells containing untreated cells or media alone were set up in each treatment plate and processed in parallel as reference controls. A zero-time plate of untreated cells and media-alone wells was simultaneously prepared and an MTT assay carried out on this plate at the time of test peptide dendrimer addition to treatment plates. All plates were cultured for 24 hours before addition of the test dendrimer. To prepare the MTT solution 100 mg of MTT (3-(4,5-dimethylthiazolyl-2)-2,5-diphenyltetrazolium bromide) (Cat #. M-128, Sigma, St Louis Mo.), is mixed with 20 ml of PBS at pH 7.4. The resulting solution is filter sterilized (0.2 μM syringe filter) and stored at 4° C. protected from light until use. MTT substrate is cleaved in growing cells to yield a water insoluble salt. After solubilisation of the salt crystals, a coloured product is produced the measurement of which allows quantitation of the proliferative activity of the cultured cells.
Appropriate concentrations of the test dendrimer were prepared by dilution of freshly prepared sterile 1 mM stock solutions into cell culture media to give a final well volume of 200 μl containing 10% v/v FCS. The zero-plate was processed by addition of MTT at this time. Cell culture was continued for a further 24 or 48 hours before addition of 20 μl of MTT in PBS (5 mg/ml, 0.2 um filter sterilised). The MTT cell proliferation assay measures cell proliferation rate and, in instances where cell viability is compromised, the assay indicates a comparative reduction in cell viability. After a 3 hour incubation in the presence of MTT (5% CO2 in air at 37° C.), plates were centifuged at 450 g for 5 minutes, supernatant removed by gentle suction and precipitated tetrazolium salt resuspended into 150 μl DMSO:glycine (0.1 M glycine, 0.1 M NaCl pH 10.5) (6:1 v/v) solution. Plates were gently vortexed to complete solubilisation of crystalline material and absorbance was read at 540-550 nm using a microplate reader. Sample data were processed to determine the comparative growth of treated samples relative to untreated controls.
HT29 cells were cultured for 48 hours in the presence of selected dendrimers and proliferation of the cells was assessed by MTT assay essentially as described in Example 1.2. The results were calculated as percentage proliferation of control cells (not treated with dendrimer).

CC(C)C[C@H](NC(=O)[C@@H]1CCCN1C(=O)[C@H](CC(N)=O)NC(=O)[C@H](CCCCN)NC(=O)[C@H](C)NC(=O)[C@H](CCCCN)NC(=O)[C@H](CO)NC(=O)[C@@H](N)CCCNC(=N)N)C(=O)N[C@@H](Cc1ccc(O)cc1)C(=O)N[C@@H](CCCNC(=N)N)C(=O)NCCCC[C@H](NC(=O)[C@H](CCCNC(=N)N)NC(=O)[C@H](Cc1ccc(O)cc1)NC(=O)[C@H](CC(C)C)NC(=O)[C@@H]1CCCN1C(=O)[C@H](CC(N)=O)NC(=O)[C@H](CCCCN)NC(=O)[C@H](C)NC(=O)[C@H](CCCCN)NC(=O)[C@H](CO)NC(=O)[C@@H](N)CCCNC(=N)N)C(=O)NCCCC[C@H](NC(=O)[C@H](CCCCNC(=O)[C@H](CCCNC(=N)N)NC(=O)[C@H](Cc1ccc(O)cc1)NC(=O)[C@H](CC(C)C)NC(=O)[C@@H]1CCCN1C(=O)[C@H](CC(N)=O)NC(=O)[C@H](CCCCN)NC(=O)[C@H](C)NC(=O)[C@H](CCCCN)NC(=O)[C@H](CO)NC(=O)[C@@H](N)CCCNC(=N)N)NC(=O)[C@H](CCCNC(=N)N)NC(=O)[C@H](Cc1ccc(O)cc1)NC(=O)[C@H](CC(C)C)NC(=O)[C@@H]1CCCN1C(=O)[C@H](CC(N)=O)NC(=O)[C@H](CCCCN)NC(=O)[C@H](C)NC(=O)[C@H](CCCCN)NC(=O)[C@H](CO)NC(=O)[C@@H](N)CCCNC(=N)N)C(=O)NCCCC[C@H](NC(=O)[C@H](CCCCNC(=O)[C@H](CCCCNC(=O)[C@H](CCCNC(=N)N)NC(=O)[C@H](Cc1ccc(O)cc1)NC(=O)[C@H](CC(C)C)NC(=O)[C@@H]1CCCN1C(=O)[C@H](CC(N)=O)NC(=O)[C@H](CCCCN)NC(=O)[C@H](C)NC(=O)[C@H](CCCCN)NC(=O)[C@H](CO)NC(=O)[C@@H](N)CCCNC(=N)N)NC(=O)[C@H](CCCNC(=N)N)NC(=O)[C@H](Cc1ccc(O)cc1)NC(=O)[C@H](CC(C)C)NC(=O)[C@@H]1CCCN1C(=O)[C@H](CC(N)=O)NC(=O)[C@H](CCCCN)NC(=O)[C@H](C)NC(=O)[C@H](CCCCN)NC(=O)[C@H](CO)NC(=O)[C@@H](N)CCCNC(=N)N)NC(=O)[C@H](CCCCNC(=O)[C@H](CCCNC(=N)N)NC(=O)[C@H](Cc1ccc(O)cc1)NC(=O)[C@H](CC(C)C)NC(=O)[C@@H]1CCCN1C(=O)[C@H](CC(N)=O)NC(=O)[C@H](CCCCN)NC(=O)[C@H](C)NC(=O)[C@H](CCCCN)NC(=O)[C@H](CO)NC(=O)[C@@H](N)CCCNC(=N)N)NC(=O)[C@H](CCCNC(=N)N)NC(=O)[C@H](Cc1ccc(O)cc1)NC(=O)[C@H](CC(C)C)NC(=O)[C@@H]1CCCN1C(=O)[C@H](CC(N)=O)NC(=O)[C@H](CCCCN)NC(=O)[C@H](C)NC(=O)[C@H](CCCCN)NC(=O)[C@H](CO)NC(=O)[C@@H](N)CCCNC(=N)N)C(=O)NCCC(N)=O [IK248]
total ERK levels (total ERK in HT29 cells): remained essentially unaffected
inhibition of growth/proliferation of DU145 prostate cancer cells [1]: inhibited growth/proliferation
inhibition of growth/proliferation of MCF-7 breast cancer cells [2]: inhibited growth/proliferation
inhibition of proliferation of HT29 colon cancer cells (MTT) (HT29 colon cancer cells [3]): inhibit proliferation of HT29 colon cancer cells; also recorded: substantially more effective at inhibiting cell growth/proliferation than the peptide dendrimer comprising 4 monomers of the polypeptide
greater inhibition of activated phospho-ERK than the closest test agent (TAT-G RSKAKNPLYR) ([4]; 5 μM, 1 hour, FCS stimulated HT29 cells): at least 30%
inhibition of activated phospho-ERK ([4]; 5 μM, 4 hours, FCS stimulated HT29 cells (data not shown)): approx. 95%
phospho-ERK level in FCS stimulated cells ([4]; HI FCS stimulated, 20 μM, 1 hour incubation): lower than in non-FCS stimulated cells treated with the dendrimer, but remained higher than phospho-ERK basal levels in control cells not treated with the dendrimer
basal phospho-ERK level relative to control cells ([4]; not FCS stimulated, 1 μM-10 μM, 4 hr incubation): incease relative to control cells
basal phospho-ERK level compared to control cells, time course ([4]; not FCS stimulated, 5 μM, 5, 10 and 30 minutes, and 1 hour): markedly increased phospho-ERK levels at all time points evaluated
inhibition of growth/proliferation of MKN45 gastric carcinoma cells [5]: inhibited growth/proliferation

Dend8 β3: peptide dendrimer presenting 8 monomer units of the β3 based peptide RARAKNPLYK (SEQ ID No. 7) (also: dendrimer of 8 peptide copies)
inhibition of proliferation of HT29 cells (MTT) (HT29 colon cancer cells [6]): inhibited proliferation of the HT29 cancer cells

Dend8 β5: peptide dendrimer presenting 8 monomer units of the β5 based peptide RSRARNPLYR (SEQ ID No. 8) (also: dendrimer of 8 peptide copies)
inhibition of proliferation of HT29 cells (MTT) (HT29 colon cancer cells [6]): inhibited proliferation of the HT29 cancer cells; also recorded: more effective

Dend 4: peptide dendrimer comprising 4 monomer units of the polypeptide RSKAKNPLYR (SEQ ID No. 6) (also: dendrimer of 4 peptide copies)
inhibition of proliferation of HT29 colon cancer cells (MTT) (HT29 colon cancer cells [3]): inhibit proliferation of HT29 colon cancer cells

Dend 9 10(4): dendrimer presenting 9 monomer units of the peptide RSKAKNPLYR (SEQ ID No. 6) (also: dendrimer of 9 peptide copies)
inhibition of proliferation of HT29 cells (MTT) (HT29 colon cancer cells [6]): Dend 12 was more effective than Dend 9

dendrimer presenting 12 monomer units of the peptide RSKAKNPLYR (SEQ ID No. 6) (also: dendrimer of 12 peptide copies) [Dend 12 10(4)]
inhibition of proliferation of HT29 cells (MTT) (HT29 colon cancer cells [6]): more effective than Dend 9
IC50 (HT29 colon cancer cells [6]; 48 hours, MTT): 1 µM
dendrimer concentration required for total kill (HT29 colon cancer cells [6]; HT29 cells, 48 hours, MTT): 10 µM
